3 molecules from patent publication US20140212487A1, “SOLID DISPERSION FORMULATION OF AN ANTIVIRAL COMPOUND” (priority 2013, published 2014) can be followed below.

Data set [1] is described as follows: Pharmacokinetics after oral administration of tablets in beagle dogs. Format: in vivo. Further details: AUC0-24, mean (RSD) / F / AUC(0-t): dose or concentration left out as unconfirmed. Conditions: pentagastrin pretreatment. The method, then:
A series of in vivo experiments were conducted to evaluate the potential benefit of the solid dispersion approach relative to conventional formulations, as well as to optimize the solid dispersion by identifying the most beneficial polymer type and relative polymer concentration within the dispersion.
Pentagastrin is a synthetic polypeptide that stimulates the secretion of gastric acid, pepsin, and intrinsic factor. […]

Data set [2] concerns HCV. The data set is described as follows: Antiviral response for dose selection of ledipasvir in HCV infected subjects. Type of data set: in vivo, Hepatitis C virus. On the procedure: The maximum median HCV RNA log 10 reduction was 3 or greater for all cohorts dosed with >3 mg of ledipasvir. […] Therefore, 30 mg and 90 mg of ledipasvir were selected as the dose for the formulations described herein.

Data set [3] is described as follows: Chemical stability in the ethanolic feed solution.
A further data set in a line: clinical. Conditions: in vivo, 30 mg; for half-life: t1/2, conventional formulation, median; for AUC(0-inf): AUCinf; for AUC(0-inf) / AUC(0-t) / Cmax / Vd/F: conventional formulation; for AUC(0-t): AUClast; for Vd/F: Vz/F.
For data set [4] the following is noted: conventional formulation; for Clast, mean: 30 mg single dose.
Data set [5] in a line: Solubility of ledipasvir in spray dry feed solvents. Type of data set: physicochemical. Conditions: organic solvent or mixture. On the procedure:
The feed solution was initially evaluated for appropriate solvent with regard to solubility, stability, and viscosity. […] Ethanolic and DCM-based feed stocks were assessed for preparation ease and spray dried at a range of inlet and outlet temperatures to assess the robustness of the spray dry process. Both solvents gave rapid dissolution of ledipasvir and copovidone.

The subject of data set [6] is HCV. The data set is described as follows: Breakthrough (BT) rate of ledipasvir in combination with other therapeutic agents. Format: in vivo, Hepatitis C virus. The method, then:
Therefore, the 90 mg dose of ledipasvir may confer a greater antiviral coverage that prevents viral breakthrough.

Data set [7] in a line: Aqueous solubility screening of ledipasvir in the presence of polymers. Type of data set: physicochemical. The method, then:
Solubility screening experiments were performed for ledipasvir in the presence of a variety of polymers, including hydroxypropyl cellulose, hypromellose, povidone and copovidone. […] Hypromellose, povidone, and copovidone increased the solubility of ledipasvir. […] Thus, in one embodiment, the polymer is selected from hypromellose, povidone, and copovidone.

The mark [8] stands for this setting: po, Geometric Least Squares Mean (GLSM), fasted.
The mark [9] stands for this setting: po, Geometric Least Squares Mean (GLSM), fed.
[10] abbreviates: po, mean, 30 mg single dose, fasted.
Where [11] appears, read: po, mean, 30 mg single dose, fed (high-fat meal).
Setting [12] is: 30 mg, high-fat meal versus fasted.

The structures appear in SMILES notation. Like-named read-outs stand apart in the source and are kept apart here. Where only a bound is given, the exact number is not on record here.

In the case of `COC(=O)N[C@H](C(=O)N1CC2(CC2)C[C@H]1c1ncc(-c2ccc3c(c2)C(F)(F)c2cc(-c4ccc5nc([C@@H]6[C@H]7CC[C@H](C7)N6C(=O)[C@@H](NC(=O)OC)C(C)C)[nH]c5c4)ccc2-3)[nH]1)C(C)C` [Amorphous Free base], the AUC(0-t) in data set [1] (dog, in vivo, read-out: AUC0-24, mean (RSD)) was determined as 8.03 µM·h. Also, the Cmax in data set [1] (dog, in vivo, read-out: Cmax, mean (RSD)) was found to be 743 nM. For the same molecule, in data set [1], the F was 71%.
Consider `COC(=O)N[C@H](C(=O)N1CC2(CC2)C[C@H]1c1ncc(-c2ccc3c(c2)C(F)(F)c2cc(-c4ccc5nc([C@@H]6[C@H]7CC[C@H](C7)N6C(=O)[C@@H](NC(=O)OC)C(C)C)[nH]c5c4)ccc2-3)[nH]1)C(C)C.O=C(O)C(O)C(O)C(=O)O` [Crystalline D-tartrate], for which, in data set [1], the “AUC0-24, mean (RSD)” value was 7623 (44) nM * hr and the F was determined as 67%.
For `COC(=O)N[C@H](C(=O)N1CC2(CC2)C[C@H]1c1ncc(-c2ccc3c(c2)C(F)(F)c2cc(-c4ccc5nc([C@@H]6[C@H]7CC[C@H](C7)N6C(=O)[C@@H](NC(=O)OC)C(C)C)[nH]c5c4)ccc2-3)[nH]1)C(C)C` [Ledipasvir, (1-{3-[6-(9,9-difluoro-7-{2-[5-(2-methoxycarbonylamino-3-methyl-butyryl)-5-aza-spiro[2.4]hept-6-yl]-3H-imidazol-4-yl}-9H-fluoren-2-yl)-1H-benzoimidazol-2-yl]-2-aza-bicyclo[2.2.1]heptane-2-carbonyl}-2-methyl-propyl)-carbamic acid methyl ester], the “maximum median HCV RNA log 10 reduction” value in the data set with HCV [2] (all cohorts dosed with >3 mg of ledipasvir) was at least 3 log 10. Also, the “fraction of maximal antiviral response (Emax PK/PD model)” value in the data set with HCV [2] (exposures after 30 mg dose, genotype 1a HCV infected subjects) is over 95%. In addition, the “chemical stability in the ethanolic feed solution” value in data set [3] is recorded as “good chemical stability”. The half-life was 39.8 h in the data set “clinical” (30 mg single dose, fasted) and 36.8 h in the data set “clinical” (30 mg single dose, fed (high-fat meal)). For the same molecule, the Tmax in the data set “clinical” (po) was 6 h. The area under the curve AUC(0-inf) in the data set “clinical” (setting [8]) came out at 2060 ng·h/mL; in the data set “clinical” (setting [9]), 1140 ng·h/mL; in the data set “clinical” (setting [10]), 2420 ng·h/mL; in “clinical” (setting [11]), 1180 ng·h/mL. For the same molecule, the AUC(0-t) in the data set “clinical” (setting [8]) amounted to 1720 ng·h/mL; in “clinical” (setting [9]), 978 ng·h/mL; in the data set “clinical” (setting [10]), 1990 ng·h/mL; in the data set “clinical” (setting [11]), 996 ng·h/mL. The Cmax in “clinical” (setting [8]) is 65.3 ng/mL; in “clinical” (setting [9]), 35.9 ng/mL; in “clinical” (setting [10]), 73.1 ng/mL; in “clinical” (setting [11]), 36.5 ng/mL. Moreover, the Vd/F in “clinical” (setting [10]) turned out to be 877 L; in “clinical” (setting [11]), 1390 L. In addition, the “Clast, mean” value in data set [4] (fasted) turned out to be 6.8 ng/mL; in data set [4] (fed (high-fat meal)), 3.1 ng/mL. In addition, the “decrease in mean AUCinf” value in data set [4] (setting [12]) was “approximately 45%”. Also, the “decrease in mean AUClast” value in data set [4] (setting [12]) is “approximately 45%”. In addition, in data set [4] (setting [12]), the “decrease in mean Cmax” value was “approximately 45%”. The solubility in data set [5] (dichloromethane (DCM)), in data set [5] (ethanol) and in data set [5] (methanol) was over 500 mg/mL throughout. Moreover, the “breakthrough (BT) rate” value was found to be 33% in the data set on HCV [6] (30 mg ledipasvir in combination with other therapeutic agents, 11/33) and 12% with HCV [6] (90 mg ledipasvir in combination with other therapeutic agents, 9/74). Moreover, the “increase of aqueous solubility of ledipasvir” value in data set [7] (pH 5, 0.1% w/w copovidone) is reported as 10 fold; in data set [7] (pH 5, 0.1% w/w hypromellose), 3 fold; in data set [7] (pH 5, 0.1% w/w povidone), 4 fold.
